Experimental data reported in ChEMBL document CHEMBL1134506, “Design and synthesis of 2-methyl-2-[4-(2-[5-methyl-2-aryloxazol-4-yl]ethoxy)phenoxy]propionic acids: a new class of dual PPARalpha/gamma agonists” (J Med Chem, 2001).

Experiments:
[1] = biological target: T1, Peroxisome proliferator-activated receptor alpha (Homo sapiens, UniProt Q07869); assay: (§1) Binding affinity at human PPAR alpha
T1 sequence (Q07869 whole entry): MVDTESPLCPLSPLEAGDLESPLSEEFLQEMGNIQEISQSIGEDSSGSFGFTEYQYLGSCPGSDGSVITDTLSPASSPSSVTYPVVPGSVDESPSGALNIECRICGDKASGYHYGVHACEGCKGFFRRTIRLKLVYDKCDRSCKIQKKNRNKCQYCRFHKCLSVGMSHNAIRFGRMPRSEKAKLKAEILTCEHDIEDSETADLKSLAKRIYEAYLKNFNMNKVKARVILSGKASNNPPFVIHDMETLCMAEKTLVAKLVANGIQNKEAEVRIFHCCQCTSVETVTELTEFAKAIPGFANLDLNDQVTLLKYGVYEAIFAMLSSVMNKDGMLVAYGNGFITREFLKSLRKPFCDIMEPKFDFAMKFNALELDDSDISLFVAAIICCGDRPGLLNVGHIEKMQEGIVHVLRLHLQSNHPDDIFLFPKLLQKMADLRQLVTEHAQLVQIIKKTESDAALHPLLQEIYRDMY

[2] = biological target: T1, Peroxisome proliferator-activated receptor alpha; assay: Binding affinity towards human […] proliferator activated receptor alpha (hPPARalpha)
[3] = biological target: T2, Peroxisome proliferator-activated receptor gamma (Homo sapiens, UniProt P37231)
T2 sequence (P37231 whole entry): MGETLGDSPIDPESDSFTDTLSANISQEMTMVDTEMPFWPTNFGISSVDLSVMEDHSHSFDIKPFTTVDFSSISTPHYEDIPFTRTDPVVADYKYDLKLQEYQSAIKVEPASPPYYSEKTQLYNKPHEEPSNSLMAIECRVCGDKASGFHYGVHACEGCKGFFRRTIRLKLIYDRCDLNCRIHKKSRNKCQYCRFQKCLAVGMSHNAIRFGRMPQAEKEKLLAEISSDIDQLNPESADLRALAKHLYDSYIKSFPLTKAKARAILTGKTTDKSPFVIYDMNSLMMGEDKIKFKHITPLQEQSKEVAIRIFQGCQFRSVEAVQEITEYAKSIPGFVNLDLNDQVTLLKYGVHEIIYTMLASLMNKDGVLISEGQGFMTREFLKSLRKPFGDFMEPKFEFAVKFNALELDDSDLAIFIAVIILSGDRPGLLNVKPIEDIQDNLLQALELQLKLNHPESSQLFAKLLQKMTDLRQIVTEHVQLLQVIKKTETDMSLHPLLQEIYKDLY

[4] = biological target: T2, Peroxisome proliferator-activated receptor gamma; remark: listed apart in the source
Description: Binding affinity at human peroxidase proliferator activated receptor gamma (hPPARgamma)

[5] = biological target: T3, Peroxisome proliferator-activated receptor alpha (Homo sapiens) (UniProt Q07869); assay: as §1
T3 sequence (whole entry): T1 sequence (Q07869 whole entry)

[6] = biological target: T1, Peroxisome proliferator-activated receptor alpha; assay: Binding affinity towards human […] proliferator activated receptor alpha (hPPARalpha); No binding
[7] = biological target: T4, Peroxisome proliferator-activated receptor gamma (Homo sapiens) (UniProt P37231); assay: Binding affinity at human PPAR gamma
T4 sequence (whole entry): T2 sequence (P37231 whole entry)

[8] = biological target: T2, Peroxisome proliferator-activated receptor gamma; assay: Binding affinity at human […] proliferator activated receptor gamma (hPPARgamma); No binding

| SMILES | EC50 [1] [nM] | IC50 [2] [nM] | EC50 [3] [nM] | IC50 [4] [µM] | Efficacy [5] [%] | IC50 [6] | Efficacy [7] [%] | IC50 [8] |
| --- | --- | --- | --- | --- | --- | --- | --- | --- |
| Cc1oc(-c2ccccc2)nc1CCOc1ccc(OC(C)(C)C(=O)O)cc1 | 717 | 1440 | 2060 | 3.02 |  |  |  |  |
| Cc1oc(-c2ccccc2)nc1CCOc1ccc(OC(C)C(=O)O)cc1 (stereo unspecified) | 625 | 2030 | 2750 | 3.12 |  |  |  |  |
| Cc1c(C)c2c(c(C)c1O)CCC(C)(COc1ccc(CC3SC(=O)NC3=O)cc1)O2 (stereo unspecified) [TROGLITAZONE] |  |  |  |  | < 20 | Not Active |  |  |
| Cc1oc(-c2ccc(Br)cc2)nc1CCOc1ccc(OC(C)(C)C(=O)O)cc1 | 61.9 | 242 | 1720 | 4.56 |  |  |  |  |
| Cc1oc(-c2ccccc2)nc1CCOc1ccc(OCC(=O)O)cc1 | 2750 | 10600 |  | 10.6 |  |  | 20 |  |
| Cc1oc(-c2ccc(-c3ccccc3)cc2)nc1CCOc1ccc(OC(C)(C)C(=O)O)cc1 | 149 | 174 | 882 | 0.548 |  |  |  |  |
| CC(C)(Oc1ccc(C(=O)c2ccc(Cl)cc2)cc1)C(=O)O [FENOFIBRIC ACID] |  | 68000 |  |  | < 20 |  | < 20 | Not Active |
| Cc1oc(-c2ccccc2)nc1CCOc1ccc(CC2SC(=O)NC2=O)cc1 (stereo unspecified) | 771 | 4090 | 8 | 0.014 |  |  |  |  |
| CN(CCOc1ccc(CC2SC(=O)NC2=O)cc1)c1ccccn1 (stereo unspecified) |  |  |  |  | 20 |  |  |  |
